# From US12110507B2, “Method for preparing functional hepatic progenitor cells or hepatic cells, or functional small intestinal epithelial progenitor cells or small intestinal epithelial cells” (priority 2017, dated 2024)
# Like-named read-outs stand apart in the source and are kept apart here.
# Legend:
# [1] = system: hepatic progenitor cells differentiated from iPSC-K cells; assay: culture of hepatic progenitor cells differentiated from iPSC-K cells in the presence of an antibiotic (selection); type: cell-based, human; details: for colony of cells after culture with antibiotic: concentration and culture period of each antibiotic as in Table 5
# Description: The iPSC-K cells were cultured until becoming approximately 80% confluent. […] The colony was dissociated by gentle tapping of the dish and then suspended by the addition of hiPSC medium. The obtained cell suspension was transferred to a dish coated with gelatin, and incubated under conditions of 15 minutes, 37° C., and 5% CO2 to remove the feeder cells. The supernatant was centrifuged, and the recovered iPSC-K cells were suspended in EB medium (having the composition described below).
# The EBs were recovered and suspended in XF32 medium (Uchida, H. et al., JCI Insight, 2017; 2 (1): e86492, doi:10.1172/jci.insight.86492). The EBs were placed at a concentration of 20 EBs/well in a 24-well plate coated with collagen, and differentiated into hepatic progenitor cells by adhesion culture at 37° C. for 35 days in 5% CO2. Then, the cells were further cultured for 2 days using modified SCM-6F8 medium (Wang, X. et al., Nature, 2015; 522 (7555): 173-8, doi:10.1038/nature14484, Epub 2015 Jun. 3) supplemented with 3 μg/ml puromycin (Wako Pure Chemical Industries, Ltd., #160-23151).
# Functional hepatic progenitor cells were prepared from iPSC-K cells by the same procedures as in the sections (2-1) and (2-2) except that various antibiotics were used instead of puromycin. The antibiotics used and their concentrations, and the number of culture days will be shown below.
# [2] = system: hepatic progenitor cells differentiated from SEES5 cells; assay: culture of hepatic progenitor cells differentiated from SEES5 cells in the presence of an antibiotic (selection); type: cell-based, human; details: for colony of cells after culture with antibiotic: concentration and culture period of each antibiotic as in Table 6 (3 days)
# [3] = system: functional hepatic progenitor cells prepared from iPSC-O cells; assay: selective culture with ammonia of functional hepatic progenitor cells prepared from iPSC-O cells; qRT-PCR after differentiation
# [4] = system: functional hepatic progenitor cells prepared from SEES5 cells; details: 5 mg/ml or 8 mg/ml ammonia, 2 days, after puromycin selection
# [5] = system: gut organoid differentiated from Edom-iPS cells; assay: culture of gut organoid in the presence of puromycin; type: cell-based; details: 2 days
# Description: Gut organoid was prepared from Edom-iPS cells (PLoS Genet., 2011; 7 (5):e1002085, doi.org/10.1371/journal.pgen.1002085), menstrual blood-derived iPS cells, according to the procedures described in Uchida, H. et al., JCI Insight, 2017; 2 (1): e86492. After a lapse of 3 months, the gut organoid was cultured for 2 days in the presence of […] puromycin.
# [6] = conditions of Table 6, data not shown
# [7] = hepatic cells differentiated from cells selected with ammonia, qRT-PCR, vs no ammonia selection
Compound,colony of cells after culture with antibiotic [1],colony of cells after culture with antibiotic [2],"CYP3A4 expression of the cells selected with antibiotic [2, 6]",also measured
CN[C@@H]1[C@@H](O)[C@@H](O[C@@H]2[C@@H](O)[C@H](O[C@H]3O[C@H]([C@@H](C)O)[C@@H](O)[C@H](O)[C@H]3N)[C@@H](N)C[C@H]2N)OC[C@]1(C)O [G418],A colony of the cells was obtained,A colony of the cells was obtained,markedly high level,–
"Cc1c(N)nc([C@H](CC(N)=O)NC[C@H](N)C(N)=O)nc1C(=O)N[C@H](C(=O)N[C@H](C)[C@@H](O)[C@H](C)C(=O)N[C@H](C(=O)NCCC1=N[C@@H](c2nc(C(=O)NCCCCN=C(N)N)cs2)CS1)[C@@H](C)O)[C@@H](O[C@@H]1O[C@@H](CO)[C@@H](O)[C@H](O)[C@@H]1O[C@H]1O[C@H](CO)[C@@H](O)[C@H](OC(N)=O)[C@@H]1O)c1cnc[nH]1 [Zeocin™, phleomycin D1]",A colony of the cells was obtained,A colony of the cells was obtained,–,CYP3A4 expression of the cells selected with antibiotic [2]: markedly high level
N [ammonia],–,–,–,"colony formation after selective culture with ammonia ([3]; 5 mg/ml or 8 mg/ml ammonia, 2 days, after puromycin selection): A colony was formed; expression level of CPS1 [3, 7]: Elevation; expression level of CYP3A4 [3, 7]: further elevate; expression level of OTC [3, 7]: Elevation; colony formation after selective culture with ammonia [4]: A colony was formed"
CN(CC[C@H](N)CC(=O)N[C@H]1C=C[C@H](n2ccc(N)nc2=O)O[C@@H]1C(=O)O)C(=N)N [blasticidin S],A colony of the cells was obtained,A colony of the cells was obtained,markedly high level,–
COc1ccc(C[C@H](N)C(=O)N[C@H]2[C@@H](O)[C@H](n3cnc4c(N(C)C)ncnc43)O[C@@H]2CO)cc1 [puromycin],–,A colony of the cells was obtained,markedly high level,"cells obtained after puromycin culture of gut organoid ([5]; 2 mg/ml puromycin): Functional small intestinal epithelial progenitor cells having the ability to metabolize drugs were obtained; cells obtained after puromycin culture of gut organoid ([5]; 400 mg/ml puromycin): Functional small intestinal epithelial progenitor cells having the ability to metabolize drugs were obtained; colony of cells after culture in the presence of puromycin ([1]; 3 μg/ml puromycin, 2 days, modified SCM-6F8 medium): colony of the cells"
phleomycin,A colony of the cells was obtained,A colony of the cells was obtained,–,–
